Results published in US20100055047A1, “Methods for treating bronchial premalignancy and lung cancer” (priority 2008, published 2010).
In brackets after ≈: the same amount, converted by molar mass.

Legend:
[1] = test system: Human NSCLC cell lines H358, H460, and A549; assay: Cytotoxicity by MTT assay; format: cell-based; settings: 72 h, 3 days exposure, range over the cell lines, read-out: IC50 (concentration inhibiting 50 percent cell growth)
Experimental: Cytotoxicity of 5-azacytidine. Human NSCLC cell lines H358, H460, and A549 were exposed to different concentrations of 5-azacytidine in a 96-well plate for 3 days. The cytotoxicity was measured by MTT assay.

[2] = test system: ICR mice; assay: in vivo
Experimental: (§1) Acute toxicity. The dose limiting toxicity of intravenous 5-azacytidine or decitabine is severe myelosuppression. In order to test whether aerosol or intratracheal injection can reduce the myelotoxicity or alter the toxicity profile, a dose of 90 mg/kg, the maximum tolerated dose (MTD) for intravenous injection (IV) of 5-azacytidine, was used to treat ICR mice by intravenous injection to mimic current therapy. The same dose of intratracheal injection (IT) of 5-azacytidine was used to mimic aerosol administration (35). Complete blood count (CBC), creatinine, liver function tests, and pathological evaluation of H/E staining of lungs, kidney and liver were performed to assess for toxicity differences.

[3] = in vivo; settings: ICR, mouse, in vivo, iv
Experimental: as §1

[4] = Aerodynamic size of aerosol droplets (7-Stage Cascade Impactor); format: physicochemical; settings: PARI compressor, LC star nebulizer, airflow 5 L/min
Experimental: Aerosol equipment. A PARI personal compressor and a LC star nebulizer were used in this study. The pressure should be 20-28 psi, and the aerosol generated rate should be 0.3±0.03 ml/min. Other clinically used aerosol equipment with similar functions can be used as well.
The aerodynamic diameters of aerosol droplets of 5-azacytidine were determined with extrusion-precipitation method using a 7-Stage Cascade Impactor (In-Tox Products, Albuquerque, N. Mex.) linked to PARI's personal compressor and LC star nebulizer system. 5-azacytidine solution (4 ml) was aerosolized under the airflow rate of 5 L/min. The condensed aerosol samples were collected at 3 different periods, from 1 to 1.5 min, from 3 to 3.5 min, and from 5 to 5.5 min. Aerodynamic size and fraction of aerosol with a particular size range were measured and calculated as per manufacturer's protocol. The data was mean±SD of the aerodynamic size based on weight (bars) and cumulative weight (line) from 3 independent experiments.

[5] = test system: orthotopic human NSCLC xenograft H460 in nude mice; assay: Antitumor efficacy, orthotopic H460 NSCLC xenograft; format: in vivo
Experimental: (§2) Antitumor efficacy. In order to evaluate the antitumor efficacy of the airway administered demethylating agent and to compare the result with systemic treatment, orthotopic human NSCLC xenograft models in nude mice were developed by inoculating the tumor cells in the respiratory airway (35,36). In the first experiment, the mice bearing lung tumors were randomly divided into 3 groups with 5 mice in each. Ten days after the H460 tumor inoculation, one group of mice were treated with intratracheal injection of 2.5 mg/kg of 5-azacytidine every other day for 3 injections, another group of mice were treated with IV injections of 6.25 mg/kg every day for 6 injections via tail vein, and the last group of mice remained untreated. […] The median survival is 50, 80 and >109 days for no treatment, IV 5Aza, and IT 5Aza group, respectively (FIG. 5-2). The similar results were obtained from another experiment using an orthotopic H358 NSCLC model. In the second experiment, the treatment schedules and doses were the same as the first experiment. The median survival is 60, 73, and 98 days for no treatment, IV 5Aza, and IT 5Aza group, respectively (FIG. 5-3). In both experiments, the differences between IT 5Aza and IV 5Aza are statistically significant (p<0.01).

[6] = test system: DAPK and E-cadherin in human NSCLC cell lines A549 and H460; assay: Demethylation function: re-expression of DAPK and E-cadherin by Western blotting; format: cell-based; settings: 24 hours exposure
Excerpt: DAPK and E-cadherin are important tumor suppressor proteins.

[7] = test system: orthotopic H358 NSCLC model in nude mice; assay: Antitumor efficacy, orthotopic H358 NSCLC xenograft; format: in vivo
Experimental: as §2

[8] = test system: lung cancer patients; settings: intravenous or subcutaneous, not aerosol; one of the largest studies; transient; cited from earlier work
[9] = test system: nude mice inoculated with H460 cells intratracheally; assay: Dose finding: lethal toxicity and MTD; format: in vivo; settings: maximum dose causing 0% death
Experimental: (§3) Dose finding. In order to use optimal therapeutic dose, the lethal toxicity and MTD for intratracheal injection (mimicking aerosol, IT) and intravenous injection (mimicking current most frequently used intravenous infusion and injection, IV) routes were determined in mice before the therapeutic experiment. Briefly, the nude mice (female, 6 weeks age) were inoculated with 4×10^6H460 cells intratracheally. One week later, they were randomly divided into several groups with 5 mice in each. Different groups of mice received different doses of IT 5Aza (range from 2.5 to 50 mg/kg qod×3) or IV 5Aza (range from 6.25 to 50 mg/k daily×6). The percentage of moribund mice in each group versus dose was used to simulate the dose response curves and determined the MTD. The maximum dose caused 0% death was defined as MTD. Under these experimental conditions, the MTD for both IT and IV 5Aza was 37.5 mg/kg or 112.5 mg/m^2 (total dose, FIG. 5-1). In considering the cytotoxicity results and the aerosol efficiency, 20% of IT MTD and 100% of IV MTD were used for the therapeutic studies.

[10] = Dose finding: lethal toxicity and MTD; format: in vivo, mice; settings: female, nude, mouse, in vivo, maximum dose causing 0% death, read-out: MTD (total dose)
Experimental: as §3

[11] = IT 2.5 mg/kg every other day for 3 injections
[12] = IV 6.25 mg/kg every day for 6 injections

Nc1ncn([C@@H]2O[C@H](CO)[C@@H](O)[C@H]2O)c(=O)n1 [5-azacytidine]
IC50 [1]: 4 to 14 µg/mL (≈ 16.4 to 57.3 µM)
highest white blood cell (WBC) reduction ([2]; ICR, mouse, in vivo, iv, 90 mg/kg, 4 day): 69±8.3%
lung toxicity ([2]; IT, 90 mg/kg): reversible lung toxicity that peaked on day 7, reduced on day 14
highest white blood cell (WBC) reduction ([2]; IT, 90 mg/kg, day 7): 11±1.0%
Toxicity grade of lungs ([2]; IT, Day 7): 1-2
hepatic or renal toxicities ([2]; mouse, in vivo, 90 mg/kg): no hepatic or renal toxicities
hepatic or renal toxicities ([2]; mouse, in vivo, iv, 90 mg/kg): no hepatic or renal toxicities
MTD [3]: 90 mg/kg
fraction of aerosol droplets measured between 0.2~3 μm in diameter [4]: about 97 % (weight)
median survival [5, 11]: > 109 days
median survival [5, 12]: 80 days
expressions of DAPK and E-cadherin [6]: significantly enhanced
median survival [7, 11]: 98 days
median survival [7, 12]: 73 days
partial remission in lung cancer patients [8]: one of 24 lung cancer patients had a partial remission
MTD (total dose) ([9]; IT, qod×3): 112.5 mg/m^2
MTD (total dose) ([9]; IV, daily×6): 112.5 mg/m^2
MTD ([10]; other: intratracheal injection, IT, qod×3): 37.5 mg/kg
MTD at 6 days ([10]; IV, daily×6): 37.5 mg/kg
